Data taken from US20240024273A1, “TOPICAL ADMINISTRATION OF 2-(DIETHYLAMINO)ETHYL 2-(4-ISOBUTYLPHENYL)PROPRIONATE FOR TREATMENT OF DISEASES” (TECHFIELDS PHARMA CO., LTD., priority 2020, published 2024).
“And” between values parts separate entries of the source, which are not always exact repeats. Equal values may be shown once.

Columns and labels:
[1] = Acute maximum tolerated dose study, dermal; design: species or system Beagle dogs; conditions: beagle, dog, in vivo, topical or ocular; dermal application
Sprague Dawley rats = assay: Respiratory safety pharmacology study; format: in vivo; conditions: single dermal dose 50, 250, 750 mg/kg
[2] = 14-day repeated dermal dose toxicity study; design: species or system Rats; conditions: rat, in vivo, topical or ocular; 14-day dermal
[3] = tested on: Subjects with Mild to Moderate Osteoarthritis of the Knee; assay: Phase 2 study: safety; format: in vivo, human
Text: Safety assessments will be performed at each visit and will include assessment of AEs, vital signs (blood pressure, pulse rate, and oral temperature), clinical laboratories, physical examination, skin irritation, and electrocardiograms (ECGs) as indicated in the study flow chart, Table 14.
Safety assessments will include AEs, vital signs (blood pressures, pulse rate, and oral temperature), clinical laboratories, physical examination, skin irritation, and ECGs at various time points during the study as indicated in the study flow chart.
Adverse events of interest include: local skin reactions around the treated knee(s), upper stomach pain, GI bleeding, serious cardiovascular side effects (e.g., thrombotic events, myocardial infarction, or stroke), jaundice, elevated liver function tests, and nausea.
Safety analyses will be conducted on the SAS. Safety parameters will be listed and summarized using standard descriptive statistics, as appropriate. No formal statistical analyses are planned.

[4] = tested on: Osteoarthritis Induced by Transection of the Anterior Cruciate Ligament (ACL); assay: Osteoarthritis induced by transection of the anterior cruciate ligament (I), treatment 4-10 weeks post-surgery; format: in vivo, SD Rats; conditions: transdermal; did not reach statistical significance
[5] = tested on: healthy male and female volunteers; assay: Phase 1 clinical study: safety (adverse events, laboratory, vital signs, ECG); format: in vivo, human; conditions: for Subjects with at least one TEAE: N = 8
Text: Safety assessments included monitoring of adverse events (AEs), vital signs (blood pressure, pulse rate, respiratory rate and oral temperature), clinical laboratory findings, resting 12-lead electrocardiogram (ECG) results, skin irritation assessments and physical examination findings.
Safety endpoints consist of all AEs, clinical laboratory test results, ECG, physical examination and vital sign assessments and skin irritation assessments.
Safety summaries are provided for all subjects in the safety population. Data from subjects in each cohort who received placebo treatment were pooled. AE data, clinical laboratory test results, ECG, skin irritation and vital signs data are presented descriptively using summary tables and listings. Change from baseline in vital signs, ECG and clinical laboratory results are presented descriptively using summary tables and listings. Physical examination findings are listed by subject.
Samples for clinical laboratory safety tests (chemistry, hematology, urinalysis) were obtained at the screening visit, Day −1, Day 4, Day 13 and prior to discharge from the study on Day 17 or at early termination. Any clinical laboratory findings considered to be clinically significant were recorded as AEs.
Systolic and diastolic blood pressure (mmHg) and pulse rate (beats per minute), respiratory rate (breaths per minute) and oral temperature (° C.) were measured after at least 5 minutes at rest in the seated position at the screening visit, at admission on Day −1, Day 5 and Day 13, and prior to and 1 hour following each dose administration.
A physical examination was performed at the screening visit and on Day 13, or at early termination, and included assessment of the following body systems: general appearance, dermatological, head, eyes, ears, nose and throat, neck, lymph nodes, lungs, heart, abdomen, neurological and musculoskeletal.
A resting 12-lead ECG was recorded after at least 5 minutes of rest at the screening visit and on Day 13, or at early termination. The ECG parameters recorded include ventricular rate (bpm), PR interval (msec), QRS duration (msec), QT interval (msec), and QTc interval (msec). QTc interval was calculated at the clinic using a formula internal to the ECG equipment (Mortara).

[6] = 14-day repeated dermal dose toxicity study; design: species or system Beagle dogs; conditions: beagle, dog, in vivo, topical or ocular; 14-day dermal
Acetic Acid Induced Pain = assay: Acetic acid induced pain (writhing); format: in vivo, ICR mice
[7] = tested on: osteoarthritis of the knee; assay: Second Phase 2 study: WOMAC stiffness subscale score; format: in vivo, human; conditions: Low Dose (2 spray/knee, 8.75 mg/knee) Cohort
[8] = N = 8 each, dose by column: c1 17.5, c2 35, c3 70, c4 140, c5 280 mg topical, c6 70 mg spray

## CCN(CC)CCOC(=O)C(C)c1ccc(CC(C)C)cc1 (stereo not drawn) [2-(diethylamino)ethyl 2-(4-isobutylphenyl)propionate]
[1]
  MTD: ≥ 50 mg/kg
Sprague Dawley rats
  respiratory changes: 250, and 750 mg/kg of ibuprofenamine were not associated with respiratory
[2]
  NOAEL at 14 days: 250 mg/kg/day
[3]; all three doses (8.75, 17.5, 35 mg/knee BID)
  safety and tolerability: appeared to be safe and were generally well tolerated
[3]; whole study
  gastrointestinal disorder incidences (very mild): 12 incidences
[3]; whole study, total
  skin irritation incidences: 8 incidences
[4]
  severity of osteoarthritic degeneration (histopathology): showed recognizable reduction in the severity of osteOArthritic
[5]; 17.5 mg topical
  Subjects with at least one TEAE: 1 (12.5%) n (%) and 1 (12.5) n (%)
[5]; 35 mg topical
  Headache, subjects: 2 (25.0%)
  Subjects with at least one TEAE: 3 (37.5%) n (%) and 3 (37.5) n (%)
[5]; 70 mg spray
  Subjects with at least one TEAE: 2 (25.0%) n (%) and 2 (25.0) n (%)
[5]; 70 mg topical
  Subjects with at least one TEAE: 1 (12.5%) n (%) and 1 (12.5) n (%)
[5]; 140 mg topical
  Headache, subjects: 1 (12.5%)
  Subjects with at least one TEAE: 1 (12.5%) n (%) and 1 (12.5) n (%)
[5]; 280 mg topical
  Subjects with at least one TEAE: 1 (12.5%) n (%) and 1 (12.5) n (%)
[5]; 17.5-280 mg topical and 70 mg spray, single and multiple doses
  safety and tolerability: safe and well-tolerated
[5]; [8]
  Subjects who discontinued due to an AE: 0
  Subjects with SAEs: 0
  TEAE: Dizziness: 0 n (%)
  TEAE: Vomiting: 0 n (%)
[5]; all dose groups
  intensity of AEs: mild or moderate in intensity
[5]; each of 70 mg topical and 70 mg spray
  aspartate aminotransferase (ast) increased, subjects: 1 (12.5%)
[5]; each of 70 mg, 280 mg topical and 70 mg spray
  alanine aminotransferase (ALT) increased, subjects: 1 (12.5%)
[5]; human, in vivo
  ECG parameters: no clinically significant ECG parameter values
  deaths: No subjects died
  laboratory findings vs dose: no apparent trends or dose relationship
  vital signs: no clinically significant vital sign values
[6]
  NOAEL at 14 days: 50 mg/kg/day
Acetic Acid Induced Pain; high dose
  inhibitory effect compared with Vehicle: 2-(4-isobutylphenyl)propionate showed significant inhibitory effect
Acetic Acid Induced Pain; low dose
  inhibitory effect: 2-(4-isobutylphenyl)propionate did not show any inhibitory effect in this
[7]; Avg. of all patients (blinded), Follow-up
  WOMAC Joint Stiffness Subscale Score, Follow-up, Avg.: 41.4
[7]; individual patient (blinded), Day 1
  WOMAC Joint Stiffness Subscale Score, Day 1: 60.5
[7]; individual patient (blinded), Week 8
  WOMAC Joint Stiffness Subscale Score, Week 8: 64.5
